The subject of this test is p-IKKa levels in L363 (NIK translocated multiple myeloma) cells. The test is described as follows: Assay 2: Effect of compounds on p-IKKa levels in L363 (NIK translocated multiple myeloma) cells. Format: cell-based. The note with it: Homo sapiens, L-363, 6 h, read-out: Assay 2 IC50 (nM), p-IKKa (Ser 176/180) in BAFF stimulated L363 cells with MG132, 6 h; average if tested more than once. The method in brief: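 Read-out is p-IKKa Ser176/180 by AlphaLISA SureFire in lysates. Cells were BAFF-primed (250 ng/ml) overnight or left unstimulated, then exposed 6 h at 37 °C to compound with MG132 (10 μM), 0.3% DMSO. IC50 from sigmoidal curve fit, normalized between stimulated and unstimulated controls.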
As for `CN1CC[C@@](O)(c2cc(-c3cccc(-c4ccnc(Nc5cnn(CC(C)(C)O)c5)n4)n3)no2)C1=O` [Example 64, (R)-3-Hydroxy-3-(3-(6-(2-((1-(2-hydroxy-2-methylpropyl)-1H-pyrazol-4-yl)amino)pyrimidin-4-yl)pyridin-2-yl)isoxazol-5-yl)-1-methylpyrrolidin-2-one], the IC50 is below 50 nM.
To `CN1CC[C@@](O)(c2cc(-c3cccc(-c4ccnc(Nc5cn(C)nn5)n4)n3)no2)C1=O` [Example 65, (R)-3-Hydroxy-1-methyl-3-(3-(6-(2-((1-methyl-1H-1,2,3-triazol-4-yl)amino)pyrimidin-4-yl)pyridin-2-yl)isoxazol-5-yl)pyrrolidin-2-one] belongs 50 to 500 nM; to `CN1CC[C@@](O)(c2cc(-c3cccc(-c4ccnc(NC5COC5)n4)n3)no2)C1=O` [Example 66, (R)-3-Hydroxy-1-methyl-3-(3-(6-(2-(oxetan-3-ylamino)pyrimidin-4-yl)pyridin-2-yl)isoxazol-5-yl)pyrrolidin-2-one], 50 to 500 nM; to `CN1CC[C@@](O)(c2cc(-c3cccc(-c4ccnc(NCCC(F)(F)F)n4)c3)no2)C1=O` [Example 71, (R)-3-Hydroxy-1-methyl-3-(3-(3-(2-((3,3,3-trifluoropropyl)amino)pyrimidin-4-yl)phenyl)isoxazol-5-yl)pyrrolidin-2-one], above 500 nM.
Take `CN1CC[C@@](O)(c2cc(-c3cccc(-c4ccnc(Nc5cnn(C)c5)n4)c3)no2)C1=O` [Example 72, (R)-3-Hydroxy-1-methyl-3-(3-(3-(2-((1-methyl-1H-pyrazol-4-yl)amino)pyrimidin-4-yl)phenyl)isoxazol-5-yl)pyrrolidin-2-one]: the IC50 is above 500 nM.
To `[2H]C([2H])([2H])n1cc(Nc2nccc(-c3cccc(-c4cc([C@]5(O)CCN(C)C5=O)on4)n3)n2)cn1` [Example 73, (R)-3-Hydroxy-1-methyl-3-(3-(6-(2-((1-(methyl-d3)-1H-pyrazol-4-yl)amino)pyrimidin-4-yl)pyridin-2-yl)isoxazol-5-yl)pyrrolidin-2-one] belongs below 50 nM; to `[2H]C([2H])([2H])C([2H])([2H])n1cc(Nc2nccc(-c3cccc(-c4cc([C@]5(O)CCN(C)C5=O)on4)n3)n2)cn1` [Example 74, (R)-3-(3-(6-(2-((1-(Ethyl-d5)-1H-pyrazol-4-yl)amino)pyrimidin-4-yl)pyridin-2-yl)isoxazol-5-yl)-3-hydroxy-1-methylpyrrolidin-2-one], below 50 nM; to `CN1CC[C@@](O)(c2cn(-c3cccc(-c4ccnc(Nc5ccn(C)n5)n4)n3)nn2)C1=O` [Example 75, (R)-3-Hydroxy-1-methyl-3-(1-(6-(2-((1-methyl-1H-pyrazol-3-yl)amino)pyrimidin-4-yl)pyridin-2-yl)-1H-1,2,3-triazol-4-yl)pyrrolidin-2-one], below 50 nM.
To `CN1CC[C@@](O)(c2cc(-c3cccc(-c4ccnc(Nc5cncc(F)c5)n4)n3)no2)C1=O` [Example 86, (R)-3-(3-(6-(2-((5-Fluoropyridin-3-yl)amino)pyrimidin-4-yl)pyridin-2-yl)isoxazol-5-yl)-3-hydroxy-1-methylpyrrolidin-2-one] belongs below 50 nM; to `CN1CC[C@@](O)(c2cc(-c3cccc(-c4ccnc(Nc5cnn(C6CCNC6)c5)n4)n3)no2)C1=O` (stereo partly drawn) [Example 90, (3R)-3-Hydroxy-1-methyl-3-(3-(6-(2-((1-(pyrrolidin-3-yl)-1H-pyrazol-4-yl)amino)pyrimidin-4-yl)pyridin-2-yl)isoxazol-5-yl)pyrrolidin-2-one], 50 to 500 nM.
On to `CCn1cc(Nc2nccc(-c3cccc(-c4cc([C@]5(O)CCN(C)C5=O)no4)n3)n2)cn1` [Example 91, (R)-3-(5-(6-(2-((1-Ethyl-1H-pyrazol-4-yl)amino)pyrimidin-4-yl)pyridin-2-yl)isoxazol-3-yl)-3-hydroxy-1-methylpyrrolidin-2-one], for which the IC50 is below 50 nM.
In the case of `C[C@@H]1C[C@@](O)(c2cc(-c3cccc(-c4ccnc(Nc5ccn(C)n5)n4)n3)no2)C(=O)N1C` [Example 92, (3R,5R)-3-Hydroxy-1,5-dimethyl-3-(3-(6-(2-((1-methyl-1H-pyrazol-3-yl)amino)pyrimidin-4-yl)pyridin-2-yl)isoxazol-5-yl)pyrrolidin-2-one], the IC50 was 50 to 500 nM.
For the compound `CN1C(=O)[C@](O)(c2cc(-c3cccc(-c4ccnc(Nc5ccn(C)n5)n4)n3)no2)[C@H]2C[C@H]21` [Example 93, (1R,4R,5S)-4-Hydroxy-2-methyl-4-(3-(6-(2-((1-methyl-1H-pyrazol-3-yl)amino)pyrimidin-4-yl)pyridin-2-yl)isoxazol-5-yl)-2-azabicyclo[3.1.0]hexan-3-one], the IC50 is 50 to 500 nM.
To `CN1CC(F)(F)[C@@](O)(c2cc(-c3cncc(-c4ccnc(Nc5ccn(C)n5)n4)n3)no2)C1=O` [Example 94, (R)-4,4-Difluoro-3-hydroxy-1-methyl-3-(3-(6-(2-((1-methyl-1H-pyrazol-3-yl)amino)pyrimidin-4-yl)pyrazin-2-yl)isoxazol-5-yl)pyrrolidin-2-one] belongs 50 to 500 nM; to `CN1CC[C@@](O)(c2cc(-c3cncc(-c4ccnc(Nc5ccn(C)n5)n4)n3)no2)C1=O` [Example 95, (R)-3-Hydroxy-1-methyl-3-(3-(6-(2-((1-methyl-1H-pyrazol-3-yl)amino)pyrimidin-4-yl)pyrazin-2-yl)isoxazol-5-yl)pyrrolidin-2-one], 50 to 500 nM; to `CN1CC[C@@](O)(c2cnn(-c3cccc(-c4ccnc(Nc5cn(CC(F)F)nc5OC5CC5)n4)n3)c2)C1=O` [Example 97, (R)-3-(1-(6-(2-((3-Cyclopropoxy-1-(2,2-difluoroethyl)-1H-pyrazol-4-yl)amino)pyrimidin-4-yl)pyridin-2-yl)-1H-pyrazol-4-yl)-3-hydroxy-1-methylpyrrolidin-2-one], 50 to 500 nM.
For the compound `CN1CC[C@@](O)(c2cnn(-c3cccc(-c4ccnc(Nc5cnn6ccccc56)n4)n3)c2)C1=O` [Example 98, (R)-3-Hydroxy-1-methyl-3-(1-(6-(2-(pyrazolo[1,5-a]pyridin-3-ylamino)pyrimidin-4-yl)pyridin-2-yl)-1H-pyrazol-4-yl)pyrrolidin-2-one], the IC50 lay in the range of 50 to 500 nM.
On to `Cc1cc(-c2cc([C@]3(O)CCN(C)C3=O)on2)nc(-c2ccnc(Nc3cnn(C)c3)n2)c1` [Example 99, (R)-3-Hydroxy-1-methyl-3-(3-(4-methyl-6-(2-((1-methyl-1H-pyrazol-4-yl)amino)pyrimidin-4-yl)pyridin-2-yl)isoxazol-5-yl)pyrrolidin-2-one], for which the IC50 is below 50 nM.
As for `Cc1cc(-c2cc([C@]3(O)CCN(C)C3=O)on2)nc(-c2ccnc(Nc3ccn(C)n3)n2)c1` [Example 100, (R)-3-Hydroxy-1-methyl-3-(3-(4-methyl-6-(2-((1-methyl-1H-pyrazol-3-yl)amino)pyrimidin-4-yl)pyridin-2-yl)isoxazol-5-yl)pyrrolidin-2-one], the IC50 was below 50 nM.
To `CN1CC[C@@](O)(c2cc(-c3cccc(-c4cc(Cl)nc(Nc5ccn(C)n5)n4)n3)no2)C1=O` [Example 101, (R)-3-(3-(6-(6-Chloro-2-((1-methyl-1H-pyrazol-3-yl)amino)pyrimidin-4-yl)pyridin-2-yl)isoxazol-5-yl)-3-hydroxy-1-methylpyrrolidin-2-one] belongs above 500 nM; to `CN1CC[C@@](O)(c2nnc(-c3cccc(-c4ccnc(Nc5cnn(C)c5Cl)n4)n3)s2)C1=O` [Example 102, (S)-3-(5-(6-(2-((5-Chloro-1-methyl-1H-pyrazol-4-yl)amino)pyrimidin-4-yl)pyridin-2-yl)-1,3,4-thiadiazol-2-yl)-3-hydroxy-1-methylpyrrolidin-2-one], 50 to 500 nM.
The figure for `CN1CC[C@](O)(c2nnc(-c3cccc(-c4ccnc(Nc5cnn(C)c5Cl)n4)n3)s2)C1=O` [Example 103, (R)-3-(5-(6-(2-((5-chloro-1-methyl-1H-pyrazol-4-yl)amino)pyrimidin-4-yl)pyridin-2-yl)-1,3,4-thiadiazol-2-yl)-3-hydroxy-1-methylpyrrolidin-2-one] is above 500 nM; for `CN1CC(F)(F)[C@@](O)(c2cn(-c3cccc(-c4ccnc(Nc5cnn(C)c5Cl)n4)n3)nn2)C1=O` [Example 109, (R)-3-(1-(6-(2-((5-Chloro-1-methyl-1H-pyrazol-4-yl)amino)pyrimidin-4-yl)pyridin-2-yl)-1H-1,2,3-triazol-4-yl)-4,4-difluoro-3-hydroxy-1-methylpyrrolidin-2-one] it is below 50 nM.
Consider `CN1CC(F)(F)[C@@](O)(c2cc(-c3cccc(-c4ccnc(Nc5cnn6c5COCC6)n4)n3)no2)C1=O` [Example 110, (R)-3-(3-(6-(2-((6,7-Dihydro-4H-pyrazolo[5,1-c][1,4]oxazin-3-yl)amino)pyrimidin-4-yl)pyridin-2-yl)isoxazol-5-yl)-4,4-difluoro-3-hydroxy-1-methylpyrrolidin-2-one], for which the IC50 was below 50 nM.
To `Cc1ncccc1Nc1nccc(-c2cccc(-c3cc([C@]4(O)CCN(C)C4=O)no3)n2)n1` [Example 111, (R)-3-Hydroxy-1-methyl-3-(5-(6-(2-((2-methylpyridin-3-yl)amino)pyrimidin-4-yl)pyridin-2-yl)isoxazol-3-yl)pyrrolidin-2-one] belongs below 50 nM; to `COc1ncc(Nc2nccc(-c3cccc(-c4cc([C@]5(O)CCN(C)C5=O)on4)n3)n2)cn1` [Example 112, (R)-3-Hydroxy-3-(3-(6-(2-((2-methoxypyrimidin-5-yl)amino)pyrimidin-4-yl)pyridin-2-yl)isoxazol-5-yl)-1-methylpyrrolidin-2-one], 50 to 500 nM.
Turning to `COc1nccc(Nc2nccc(-c3cccc(-c4cc([C@]5(O)CCN(C)C5=O)on4)n3)n2)n1` [Example 113, (R)-3-Hydroxy-3-(3-(6-(2-((2-methoxypyrimidin-4-yl)amino)pyrimidin-4-yl)pyridin-2-yl)isoxazol-5-yl)-1-methylpyrrolidin-2-one], the IC50 is below 50 nM.

Values taken from patent US20250282768A1 (Janssen Pharmaceutica NV, priority 2022, published 2025).
